Patent US7528226B2, “TGFβ1-inhibitor peptides” (Rojecto de Biomedicina Cima S.L., priority 1998, dated 2009)
No end group written: not given here.

Tests used:
[1] = system: type I, II and III cell receptors of TGFβ1; assay: Affinity labelling: inhibition of binding of 125I-TGFβ1 to its cell receptors on MV-1-Lu cells; design: species or system human
Description: The MV-1-Lu cells were removed from the culture flasks incubating them at 37° C. for 10 minutes, with 10 ml of solution 1 (128 mM NaCl, 5 mM KCl, 25 mM 4-(2-hydroxyethyl)-1-piperazine ethanesulphonate at pH 7.5, 5 mM glucose and 1 mM EDTA). The cells thus removed were resuspended in solution 2 (128 Mm NaCl, 5 mM KCl, 50 mM 4-(2-hydroxyethyl)-1-piperazine ethanesulphonate at pH 7.5, 1.2 mM CaCl2, 1.2 mM MgSO4 and 5 mg/ml BSA) and were collected by centrifugation at 1000×g for 5 minutes. After centrifugation the cells were resuspended in solution 2 at a concentration of 10^6 cells/ml.
From this cell suspension, 0.5 ml aliquots were made in 24-well plates (Greiner GmbH, Frickenhausen, Germany), the peptides were added, in 50 μl of a 0.8 mg/ml solution, then this was incubated for 2 hours at 4° C. with stirring. Next, ^125I-TGFβ1 (2 μCi) was added to a final concentration of 277.2 pM (^125I-TGFβ1 human recombinant 800-2200 Ci/mmol, Amersham Life Science, Buckinghamshire, UK) and this was incubated for a further two hours at 4° C. with stirring.
After incubation, the cells were transferred to a centrifuge tube and were centrifuged cold at 12,000×g for 1 minute. […]

[2] = system: experimental cirrhosis with CCl4; assay: Model of experimental cirrhosis induced with CCl4 in Wistar rats (collagen / fibrosis); format: in vivo, rat
Description: Male white rats (albino Wistar strain) from simultaneous litters (5 weeks±1.5 weeks) were used, in order to obtain a group that was homogeneous in age and initial weight. Throughout the experiments, the animals were kept in conditions of constant temperature (22° C.) with a 12-hour cycle of light and darkness. They had free access to water and food.
Hepatic cirrhosis (HC) was induced by inhalation of carbon tetrachloride for 11 weeks, twice per week (López Novoa J M et al. (1976) Patologia IX:223-240; Camps J. et al. (1987) Gastroenterology 93:498-505). Exposure to CCl4 was effected by bubbling compressed air, at a flow rate of 3 liters/min, through a gas wash-bottle. […] CCl4 was not administered during the fifth week, starting again at the sixth week with an exposure of 5 minutes. This exposure time was maintained until week 11. 400 mg/l of phenobarbital (Luminal®, Bayer, Leverkusen, Germany) was added to the drinking water, from one week before starting exposure to CCl4 and until the end of the experimental period. Before starting the treatment, one week was left, in which they were not administered CCl4. During treatment they were administered a weekly dose of CCl4, as recorded (FIG. 2).
The animals were divided into 4 groups before beginning the process of induction of hepatic cirrhosis. • Healthy controls (Co): Animals that were not subjected to the fibrosis process. • Treated healthy controls (Co+P144): Animals that were not subjected to the fibrosis process and that were administered the peptide P144 during the last 3 weeks (coinciding in time with the treatment of the group of rats Tto2). • Cirrhotic controls 1 (Ci1): Animals subjected to the process of induction of cirrhosis by inhalation of CCl4 twice per week. These animals were separated into 2 groups on reaching the fifth week: • Cirrhotic controls 1 (Ci1): Animals that continued to be subjected to the process of induction of fibrosis up to week 11, without being administered the peptide P144. They were administered saline serum on alternate days, throughout the induction process (weeks 5 to 11). • Treated cirrhotics 1 (Tto1): Animals that were administered the peptide P144 derived from the sequence of the type III receptor, on alternate days, during the process of induction of fibrosis, from week 5 to week 11. • Cirrhotic controls 2 (Ci2): Animals that continued to be subjected to the process of induction of fibrosis without receiving the peptide P144 or saline serum. This group was subdivided into another two on reaching week 11. • Cirrhotic controls 2 (Ci2): Cirrhotic animals that were not subjected to any type of treatment, kept as controls. […]

Sequence: TSLDASIIWAMMQN [P144, ThrSerLeuAspAlaSerIleIleTrpAlaMetMetGlnAsn]
- inhibition of the binding of 125I-TGFβ1 to the cell receptors ([1]; preincubation with peptide at 10^6 times the molar concentration of 125I-TGFβ1): inhibition of the binding
- concentration at which the peptide lost its activity ([1]; titration of the peptide, affinity labelling): 2×10^5 times the molar concentration of ^125I-TGFβ1
- ratio of collagen to total protein, treated (Tto1) vs cirrhotic controls (Ci1) ([2]; protocol 1: 70 μg/animal on alternate days during cirrhosis induction, Fast Green/Direct Red, spectrophotometer): significant differences are observed (P<0.05)
- area of fibrosis, treated (Tto1) vs cirrhotic controls (Ci1) ([2]; protocol 1: 70 μg/animal on alternate days during cirrhosis induction, image analysis, Sirius Red): also significant (P<0.001)
- ratio of collagen to total protein, treated (Tto2) vs cirrhotic controls (Ci2) ([2]; protocol 2: 70 μg/animal on alternate days for 3 weeks once cirrhosis was established): not significant
- area of fibrosis, treated (Tto2) vs cirrhotic controls (Ci2) ([2]; protocol 2: 70 μg/animal on alternate days for 3 weeks once cirrhosis was established, image analysis): not significant
